# From patent US7714134B2, “Compounds and use of tetrahydropyridothiophenes” (4SC AG, priority 2004, dated 2010)
# What was measured:
# [1] = system: RKO colon adenocarcinoma cells (RKOp27) arrested by expression of ectopic p27Kip1; assay: Alamar Blue cell viability assay, cell cycle specific mode of action, RKO p27 induced (arrested by Ponasterone A-induced p27Kip1); assay type: cell-based; settings: Homo sapiens, RKOp27, 72 h, cells arrested by p27Kip1 induced with 10 μM Ponasterone A, 72 hours incubation
# Description: To determine the cell cycle specific mode of action, subdlones of RKO colon adenocarcinoma cells (RKOp27 or RKOp21 as described by Schmidt et al. in Oncogene 19, 2423-2429; 2000) are seeded into 96 well flat bottom plates at a density of 16000 cells per well in a volume of 50 μl per well in DMEM growth medium with 10% FCS containing 10 μM Ponasterone A. 24 hours after seeding the 50 μl each of the compound dilutions in DMEM medium are added into each well of the 96 Well plate. Each compound dilution is tested as quadruplicates. Wells containing untreated control cells are filled with 50 μl DMEM medium containing 1% DMSO. The cells are then incubated with the substances for 72 hours at 37° C. in a humidified atmosphere containing 5% carbon dioxide. To determine the viability of the cells, 10 μl of an Alamar Blue solution (Biosource) are added and the fluorescence was measured at an extinction of 544 nm and an emission of 590 nm. For the calculation of the cell viability the emission value from untreated cells is set as 100% viability and the emission rates of treated cells are set in relation to the values of untreated cells. Viabilities are expressed as % values. Viability is compared of proliferating cells grown in the absence of the inducer Ponasterone A, versus viability of cells arrested by the expression of ectopic p27Kip1 induced by Ponasterone A. The data of this experimental setting are summarized in table A (2nd column).
# [2] = system: RKO (RKOp27) human colon adenocarcinoma cells; assay: Alamar Blue cell viability assay, anti-proliferative/cytotoxic activity, RKO p27 uninduced; assay type: cell-based; settings: RKOp27, 72 h, proliferating cells, absence of the inducer Ponasterone A, 72 hours incubation
# Description: The anti-proliferative/cytotoxic activity of the compounds described herein, can be tested on subdlones of RKO (RKOp27) human colon adenocarcinoma cells (Schmidt et al., Oncogene 19, 2423-2429; 2000) using the Alamar Blue cell viability assay (described in O'Brien et al. Eur J Biochem 267, 5421-5426, 2000). The compounds are dissolved as 20 mM solutions in dimethylsulfoxide (DMSO) and subsequently diluted in semi-logarithmic steps. DMSO dilutions are further diluted 1:100 into Dulbecco's modified Eagle's medium (DMEM) containing 10% fetal calf serum to a final concentration twice as much as the final concentration in the test. RKO subclones are seeded into 96 well flat bottom plates at a density of 4000 cells per well in a volume of 50 µl per well. 24 hours after seeding the 50 μl each of the compound dilutions in DMEM medium are added into each well of the 96 Well plate. Each compound dilution is tested as quadruplicates. Wells containing untreated control cells are filled with 50 μl DMEM medium containing 1% DMSO. The cells are then incubated with the substances for 72 hours at 37° C. in a humidified atmosphere containing 5% carbon dioxide. To determine the viability of the cells, 10 μl of an Alamar Blue solution (Biosource) are added and the fluorescence is measured at an extinction of 544 nm and an emission of 590 nm. For the calculation of the cell viability the emission value from untreated cells is set as 100% viability and the emission rates of treated cells are set in relation to the values of untreated cells. Viabilities are expressed as % values.
# The corresponding IC50 values of the compounds for anti-proliferative/cytotoxic activity are determined from the concentration-effect curves.
# Representative IC50 values for anti-proliferation/cytotoxicity determined for the compounds mentioned and numbered as Examples in the examples above follow from the following table A (1st column), in which the numbers of the compound correspond to the numbers of the examples. Any or all of the compounds according to the present invention which are listed in the Table A, as well as their salts, are to be mentioned as a particular interesting subject of the present invention.
IC50 [1] [nM],Structure (SMILES),IC50 [2] [nM]
> 100000,"CC(=O)N1CCc2c(sc(NC(=O)c3ccccc3)c2C#N)C1 [Compound 20, N-(6-Acetyl-3-cyano-4,5,6,7-tetrahydro-thieno[2,3-c]pyridin-2-yl)-benzamide]",3000
> 60000,"N#Cc1c(NC(=O)c2ccccc2)sc2c1CCN(C(=O)CCn1cnnc1)C2 [Compound 34, N-[3-Cyano-6-(3-[1,2,4]triazol-4-yl-propanoyl)-4,5,6,7-tetrahvdro-thieno[2,3-c]pyridin-2-yl]-benzamide]",≤ 3000
> 60000,"COC(=O)CCCC(=O)N1CCc2c(sc(NC(=O)c3ccccc3)c2C#N)C1 [Compound 38, 5-{3-Cyano-2-[(1-phenyl-methanoyl)-amino]-4,7-dihydro-5H-thieno[2,3-c]pyridin-6-yl}-5-oxo-pentanoic acid methyl ester]",≤ 3000
> 100000,"COc1cc(OC)cc(C(=O)Nc2sc3c(c2C#N)CCN(C(C)=O)C3)c1 [Compound 26, N-(6-Acetyl-3-cyano-4,5,6,7-tetrahydro-thieno[2,3-c]pyridin-2-yl)-3,5-dimethoxy-benzamide]",≤ 2000
> 100000,"COC(=O)CCC(=O)N1CCc2c(sc(NC(=O)c3ccccc3)c2C#N)C1 [Compound 22, 4-{3-Cyano-2-[(1-phenyl-methanoyl)-amino]-4,7-dihydro-5H-thieno[2,3-c]pyridin-6-yl}-4-oxo-butyric acid methyl ester]",≤ 2000
> 60000,"N#Cc1c(NC(=O)c2ccccc2)sc2c1CCN(C(=O)CCNC(=N)N)C2 [Compound 39, N-[3-Cyano6-(3-guanidino-propanoyl)-4,5,6.7-tetrahydro-thieno[2,3-c]pyridin-2-yl]-benzamide]",≤ 3000
> 60000,"N#Cc1c(NC(=O)c2ccccc2)sc2c1CCN(C(=O)Cc1ccccn1)C2 [Compound 42, N-[3-Cyano-6-(2-pyridin-2-yl-ethanoyl)-4,5,7-tetrahydro-thieno[2,3-c]pyridin-2-yl]-benzamide]",≤ 3000
> 100000,"N#Cc1c(NC(=O)c2ccccc2)sc2c1CCN(C(=O)CCCO)C2 [Compound 88, N-[3-Cyano-6-(4-hydroxy-butanoyl)-4,5,6,7-tetrahydro-thieno[2,3-c]pyridin-2-yl]-benzamide]",≤ 3000
> 100000,"CC(=O)OCC(=O)N1CCc2c(sc(NC(=O)c3ccccc3)c2C#N)C1 [Compound 84, Acetic acid 2-3-cyano-2-[(1-phenyl-methanoyl)-amino]-4,7-dihydro-5H-thieno[2,3-c]pyridin-6-yl-2-oxo-ethyl ester]",≤ 3000
> 60000,"N#Cc1c(NC(=O)c2ccccc2)sc2c1CCN(C(=O)Cc1c[nH]c3ccccc13)C2 [Compound 36, N-[3-Cyano-6-(2-1H-indol-3-yl-ethanoyl)-4,5,6,7-tetrahydro-thieno[2,3-c]pyridin-2-yl]-benzamide]",≤ 3000
> 60000,"COCC(=O)N1CCc2c(sc(NC(=O)c3ccccc3)c2C#N)C1 [Compound 32, N-[3-Cyano-6-(2-methoxy-ethanoyl)-4,6,7-tetrahydro-thieno[2,3-c]pyridin-2-yl]-benzamide]",≤ 3000
> 60000,"CCOC(=O)CC(=O)N1CCc2c(sc(NC(=O)c3ccccc3)c2C#N)C1 [Compound 31, 3-{3-Cyano-2-[(1-phenyl-methanoyl)-amino]-4,7-dihydro-5H-thieno[2,3-c]pyridin-6-yl}-3-oxo-propionic acid ethyl ester]",≤ 3000
> 100000,"CCCC(=O)N1CCc2c(sc(NC(=O)c3cccc(OC)c3)c2C#N)C1 [Compound 25, N-(6-Butyryl-3-cyano-4,5,6,7-tetrahydro-thieno[2,3-c]pyridin-2-yl)-3-methoxy-benzamide]",≤ 2000
> 60000,"CCOC(=O)N1CCc2c(sc(NC(=O)c3cccc(C)c3)c2C#N)C1 [Compound 51, 3-Cyano-2-[(1-m-tolyl-methanoyl)-amino]-4,7-dihydro-5H-thieno[2,3-c]pyridine-6-carboxylic acid ethyl ester]",≤ 3000
> 100000,"N#Cc1c(NC(=O)c2ccccc2)sc2c1CCN(C(=O)OCCO)C2 [Compound 97, 3-Cyano-2-[(1-phenyl-methanoyl)-amino]-4,7-dihydro-5H-thieno[2,3-c]pyridine-6-carboxylic acid 2-hydroxy-ethyl ester]",≤ 3000
> 100000,"CCCCCSC(=O)N1CCc2c(sc(NC(=O)c3ccccc3)c2C#N)C1 [Compound 101, 3-Cyano-2-[(1-phenyl-methanoyl)-amino]-4,7-dihydro-5H-thieno[2,3-c]pyridine6-carbothioic acid S-pentyl ester]",≤ 3000
> 100000,"N#Cc1c(NC(=O)c2ccccc2)sc2c1CCN(C(=O)CCCc1cccs1)C2 [Compound 28, N-[3-Cyano6-(4-thiophen-2-yl-butanoyl)-4,5,6,7-tetrahydro-thieno[2,3-c]pryridin-2-yl]-benzamide]",≤ 2000
> 100000,"CC(=O)CCC(=O)N1CCc2c(sc(NC(=O)c3ccccc3)c2C#N)C1 [Compound 27, N-[3-Cyano-6-(4-oxo-pentanoyl)-4,5,6,7-tetrahydro-thieno[2,3-c]pyridin-2-yl]-benzamide]",≤ 2000
> 60000,"N#Cc1c(NC(=O)c2ccccc2)sc2c1CCN(C(=O)OCC(O)CO)C2 (stereo not shown) [Compound 76, 3-Cyano-2-[(1-phenyl-methanoyl)-amino]-4,7-dihydro-5H-thieno[2,3-c]pyridine-6-carboxylic acid 2,3-dihydroxy-propyl ester]",≤ 3000
> 60000,"N#Cc1c(NC(=O)c2ccccc2)sc2c1CCN(C(=O)Oc1ccccc1)C2 [Compound 59, 3-Cyano-2-[(1-phenyl-methanoyl)-amino]-4,7-dihydro-5H-thieno[2,3-c]pyridine-6-carboxylic acid phenyl ester]",≤ 3000
> 60000,"CCOC(=O)N1CCc2c(sc(NC(=O)c3cccc([N+](=O)[O-])c3)c2C#N)C1 [Compound 45, 3-Cyano-2{[1-(3-nitro-phenyl)-methanoyl]-amino}-4,7-dihydro-5H-thieno[2,3-c]pyridine-6-carboxylic acid ethyl ester]",≤ 3000
> 60000,"N#Cc1c(NC(=O)c2ccccc2)sc2c1CCN(C(=O)OCCCc1ccncc1)C2 [Compound 69, 3-Cyano-2-[(1-phenyl-methanoyl)-amino]-4,7-dihydro-5H-thieno[2,3-c]pyridine-6-carboxylic acid 3-pyridin-4-yl-propyl ester]",≤ 3000
> 60000,"COc1ccc(OC(=O)N2CCc3c(sc(NC(=O)c4ccccc4)c3C#N)C2)cc1 [Compound 60, 3-Cyano-2-[(1-phenyl-methanoyl)-amino]-4,7-dihydro-5H-thieno[2,3-c]pyridine-6-carboxylic acid 4-methoxy-phenyl ester]",≤ 3000
> 100000,"CCOC(=O)N1CCc2c(sc(NC(=O)c3ccccc3)c2C#N)C1 [Compound 18, N-(6-Ethoxycarbonyl-3-cyano-4,5,6,7-tetrahydro-thieno[2,3-c]pyridin-2-yl)-benzamide]",≤ 2000
> 60000,"N#Cc1c(NC(=O)c2ccccc2)sc2c1CCN(C(=O)Cc1cccnc1)C2 [Compound 35, N-[3-Cyano-6-(2-pyridin-3-yl-ethanoyl)-4,5,6,7-tetrahydro-thieon[2,3-c]pyridin-2-yl]-benzamide]",≤ 3000
> 60000,COCCOCC(=O)N1CCc2c(sc(NC(=O)c3ccccc3)c2C#N)C1 [Compound 40],≤ 3000
